From article PMC5056396, “Hexokinase I N-terminal based peptide prevents the VDAC1-SOD1 G93A interaction and re-establishes ALS cell viability” (Scientific Reports, 2016)

Legend:
[1] = tested on: SOD1 G93A binding to intact mitochondria purified from NSC34 cells; assay: Mitochondrial binding assay of SOD1 G93A after pre-incubation with peptide; set-up: species or system mouse; conditions: scramble control
Method: The ability of NHK1 to inhibit SOD1 G93A from binding the mitochondrial surface was investigated using intact mitochondria purified from NSC34 cells. Mitochondria were incubated with SOD1 G93A, in the presence or absence of 60 μM NHK1 peptide. […] Following incubation with NHK1, a dramatic decrease of 85% SOD1 G93A bound to mitochondria was seen (Fig. 5D). Again, no effect was found by incubating mitochondria with the ScNHK1 peptide.
Intact mitochondria were purified from NSC34 cells by Mitochondrial isolation kit (Miltenyi Biotech), according with manufacturer’s instructions. Isolated, intact mitochondria, in the storage buffer provided, were quantified by Lowry method. Mitochondria were incubated with 2 μg of purified SOD1 WT or G93A for 1 h at RT, under constant shaking in storage buffer. Alternatively, a pre-incubation with 60 μM NHK1 peptide for 1 h, in the same condition, was performed. Mitochondrial pellet was collected by centrifugation for 2 min at 13000×g. Supernatants were collected, and mitochondrial pellets were lysed using 3% Triton X-100. Proteins in mitochondrial or supernatant fraction were detected by western blot and quantified as explained in Supplementary Information. At least, three independent experiments were performed.

[2] = tested on: NSC34-SOD1G93A cells; assay: Cell viability assay (MTT); format: cell-based, mouse; conditions: expression from transfected plasmid
Text: (§1) In order to analyze the effect of NHK1 peptide in our ALS-like in cellulo system, the subcellular distribution of NHK1 peptide was investigated. NSC34 cells were transiently transfected with a plasmid encoding for a HA-tagged NHK1 peptide and for a mitochondrial-targeted Red Fluorescent Protein (mtDsRED)[18]. […] Then, the NHK1 peptide, as well as the whole HK1 as control, was expressed in NSC34-SOD1G93A or SOD1WT to evaluate its ability to counteract the toxicity mediated by mutSOD1. Literature reports indicate that SOD1 mutants expression in NSC34 cell promote a significative loss of cell viability, accordingly with the specific mutation. […] Therefore, supplementation of NHK1 peptide (or HK1) to NSC34-SOD1G93A cells promotes a recovery of the cell viability.
24 h-induced NSC34-SOD1WT and NSC34-SOD1G93A cells seeded on 24-well plates were transfected using 0,25 μg of pEGFP-N1-HK1 or empty pEGFP-N1 or 0,5 μg of pMCS-mtDsRED-NHK1 or scramble or empty pCMS-mtDsRED. Cell viability was analyzed using 3-(4,5-dimethylthiazol-2-yl)-2,5-diphenyltetrazolium bromide (MTT)[47] (Sigma). A colorimetric assay was performed using the microplate reader Varioskan (Thermo Scientific). Reported data are representative for three sets of independent experiments, each performed in triplicate. Data were statistically analyzed using one-way ANOVA followed by Bonferroni post hoc test. […]

[3] = tested on: NSC34 cells; assay: Subcellular distribution by indirect immunofluorescence; format: cell-based, mouse; conditions: HA-tagged NHK1 expressed from plasmid with mtDsRED, transient transfection
Text: as §1
Plasmids and cell transfection […]
NSC34 cells not transfected or transfected with 0,5 µg of pCMS-mtDsRED-NHK1-HA were fixed in 3.7% formaldehyde and permeabilized using 0.3% Triton X-100. […] Endogenous HK1 was detected in not transfected cells by incubating over-night cells with rabbit anti-HK1 antibody (1:100) (Abcam). NHK1-HA was detected in transfected cells by incubating over-night cells with rabbit anti-HA antibody (1:100) (Santa Cruz Biotechnology, Inc.). […]
examined by fluorescence microscopy. […]

Row | Sequence | effect on SOD1 G93A bound to mitochondria [1] | effect on cell viability of NSC34-SOD1G93A [2] | subcellular localization [3]
1 | FAQLTIALAYY [ScNHK1, scramble peptide (…) synthetized and used as control, reference compound] | no effect | does not change the cell viability | –
2 | IAAQLLAYYFT [NHK1, peptide corresponding to residues 2–12 (N-terminal region) of human HK1 protein (…)] | – | – | mainly co-localized with mtDsRED signal
